The text below walks through data of US20080249124A1, “WORTMANNIN-RAPALOG CONJUGATE AND USES THEREOF” (Wyeth, priority 2007, published 2008).

The test system of data set [1] is U87MG (human glioblastoma) tumor. Put plainly: Xenograft tumor efficacy study. It counts as in vivo. The note with it: female nude mice; for tumor size versus control and single reference compounds: 15 mg/kg IV on day 0 and day 7, D5W vehicle; for tumor size versus mixture of reference compounds 1 and 2: 15 mg/kg IV on day 0 and day 7, mixture 10 mg/kg/5 mg/kg. The procedure:
Female nude mice at 10 weeks of age were inoculated subcutaneously on the flank with 200 μL U87MG (human glioblastoma) tumor cell suspension. U87MG cells were suspended in full growth media and were implanted at 10 million cells per mouse. Mice were staged when tumors reached approximately 200 mm^3 in sizes. Tumor bearing mice at staging (day 0) were randomized into treatment groups (n=10). The conjugates described herein were formulated in D5W vehicle (glucose-water) and were dosed IV on day 0 and day 7. See, Table 6.
The growth of tumors was monitored twice a week for the duration of the experiment. Tumor size was measured using sliding vernier calipers, and the tumor mass was calculated using the formula (length×Width^2)/2.

The subject of data set [2] is PI3K. As to conditions: cited from earlier work.
Data set [3] concerns C3H mammary model. As to conditions: cited from earlier work.
In data set [4] the test system is tumor xenografts. As to conditions: animals; cited from earlier work.

`COC[C@H]1OC(=O)/C(=C/N(C)CCCN(C)C)C2=C(O)C(=O)C3=C([C@H](OC(C)=O)C[C@@]4(C)C3CC[C@@H]4OC(=O)CCCCCCC(=O)O[C@H]3CC[C@H](C[C@@H](C)[C@@H]4CC(=O)[C@H](C)/C=C(\C)[C@@H](O)[C@@H](OC)C(=O)[C@H](C)C[C@H](C)/C=C/C=C/C=C(\C)[C@@H](OC)C[C@@H]5CC[C@@H](C)[C@@](O)(O5)C(=O)C(=O)N5CCCC[C@H]5C(=O)O4)CC3)[C@]21C` (stereo partly shown) [Example 2b, N,N,N′-trimethyl-1,3-propanediamine adduct of 42,17′-linked 41-Desmethoxyrapamycin-Suberate-Wortmannin conjugate]: in data set [1], the “tumor size versus control and single reference compounds” value is on record as “smaller tumors than tumors treated with control or with reference compound 1 or reference compound”; the “tumor size versus mixture of reference compounds 1 and 2” value was “tumors of comparable size to that achieved with a mixture of reference compounds 1 and 2”.

`COCC1OC(=O)c2coc3c2C1(C)C1=C(C3=O)C2CCC(O)C2(C)CC1OC(C)=O` (stereo not drawn) [17β-Hydroxywortmannin]: the “increase in activity relative to wortmannin” value in data set [2] (PI3K) was 10 fold. Besides, the IC50 (commonly the concentration at which inhibition is half-maximal) in data set [2] is 0.5 nM. In addition, the anti-tumor activity entry in data set [3] (dose of 0.5 mg/kg) is “no inhibition”. In addition, in data set [3] (dose of 1.0 mg/kg), the toxicity entry was “toxicity”.

On to “Diallylamine Adduct of 42,17′-linked 41-Desmethoxyrapamycin-Suberate-Wortmannin Conjugate [Example 2a]”, for which the “tumor size versus control and single reference compounds” value in data set [1] is listed as “smaller tumors than tumors treated with control or with reference compound 1 or reference compound”.

For “diallylamine adduct of 17-hydroxywortmannin [compound 2]”, in data set [1], the “tumor size versus mixture of reference compounds 1 and 2” value was “tumors of comparable size to that achieved with a mixture of reference compounds 1 and 2”.

`COC[C@H]1OC(=O)c2coc3c2[C@@]1(C)C1=C(C3=O)[C@@H]2CCC(=O)[C@@]2(C)C[C@H]1OC(C)=O` [Wortmannin]: the PI3K inhibition result in data set [2] was “irreversible inhibitor, at nanomolar concentrations”. The “antitumor activity against tumor xenografts” value in data set [4] was “antitumor activity against tumor xenografts in animals”.
